Data: US5847123A, “Imide derivatives for inhibiting the production of interleukin-1β and the production of tumor necrosis factor α” (Nisshin Flour Milling Co., Ltd., priority 1996, dated 1998)

Legend:
TNFα production [1] = assay: Inhibitory activity of the TNFα production in PMA/polyinosic acid-stimulated THP-1 cells (ELIZA kit); assay type: cell-based, human (THP-1 cells); settings: Homo sapiens, PMA 2 μg/ml and polyinosic acid 200 μg/ml, 22 hours
Experimental: (§1) Determination for the inhibitory activity of the IL-1β production and the inhibitory activity of the TNFα production
(§2) The THP-1 cells, which is the monocyte-established cell line derived from human peripheral blood (ATCC TIB202), were incubated at 37° C. in a 5% CO2 incubator in RPMI 1640 medium (available from Bio-Whittaker Co., Ltd.) containing 10% (v/v) of fetal bovine serum, 2 mM of glutamine, 50 μM of 2-mercaptoethanol, 60 μg/ml of penicillin and 100 μg/ml of streptomycin. The THP-1 cells maintained as described above were centrifuged at 1200 rpm at room temperature for 3 minutes to recover the cells in a 50 ml conical tube. The cell pellets thus obtained were resuspended in RPMI 1640 medium containing 2% (v/v) of fetal bovine serum and the glutamine, 2-mercaptoethanol and antibiotics as described above so as to provide a final THP-1 cell concentration of 2×10^6 cells/ml.
(§3) The cell resuspension having the above concentration was dispensed in 0.5 ml portions to a 24-well plate for cell culture. Then, 2.5 μl each of the solutions of the present imide derivatives dissolved in DMSO was added to each well. The plate was then incubated at 37° C. in a 5% CO2 incubator for one hour. Then, 12-o-tetradecanoylphorbol-13-acetate (hereinafter referred to as PMA) and polyinosic acid were added to each well so as to provide the final concentrations of 2 μg/ml and 200 μg/ml, respectively. The plate was further incubated at 37° C. in a 5% CO2 incubator for 22 hours and the IL-1β and TNFα produced in the cultured broth were assayed. The assay for IL-1β was carried out by means of the enzyme immunoassay kit available from Cayman Chemical Co., Ltd., while the assay of TNFα was done by means of the ELIZA kit available from Genzyme Co., Ltd.
(§4) The inhibitory activity was expressed in terms of IC50 values, wherein the produced amount of IL-1β and the produced amount of TNFα when no imide derivative was added are defined as 100, respectively, and the concentration of each imide derivative of the present invention to inhibit the IL-1β production and TNFα production is defined as IC50, respectively.

IL-1β production = assay: Inhibitory activity of the IL-1β production in PMA/polyinosic acid-stimulated THP-1 cells (enzyme immunoassay); assay type: cell-based, human (THP-1 cells); settings: Homo sapiens, PMA 2 μg/ml and polyinosic acid 200 μg/ml, 22 hours
Experimental: as §1, §2, §3, §4

TNFα production [2] = assay: Inhibitory activity of the TNFα production in LPS-treated mice (blood TNFα level); assay type: in vivo, DBA/2 strain mice; settings: for Inhibitory rate (%) of TNFα production: 10 mg/kg i.p. twice (before and after 30 minutes from LPS 5.6 mg/kg i.v.), blood TNFα after 2 hours; for inhibitory activity on the TNFα production in mice (in words): 10 mg/kg i.p., LPS-treated DBA/2 mice
Experimental: Determination for the inhibitory activity of the TNFα production To the DBA/2 strain mice previously given with LPS 5.6 mg/kg, i.v. were intraperitoneally administered twice before and after 30 minutes from the LPS administration the present imide derivatives selected from Compound 1, Compound 3, Compound 7, Compound 8, Compound 9 and Compound 26. After 2 hours from the LPD administration, the blood TNFα level was determined to investigate the inhibitory activity of the present imide derivatives on the TNFα production. More specifically, the blood TNFα level was determined when the present imide derivative was given at a dose of 10 mg/kg to calculate the inhibitory rate of the TNFα production.

[3] = Determination for cytotoxicity in THP-1 cells (Alamar Blue); assay type: cell-based; settings: human, 24 hours incubation, read-out: LD50 (lethal dose for 50% in the THP-1 cells)
Experimental: Determination for Cytotoxicity The THP-1 cells, which is the monocyte-established cell line derived from human peripheral blood (ATCC TIB202), were incubated at 37° C. in a 5% CO2 incubator in RPMI 1640 medium (available from Bio-Whittaker Co., Ltd.) containing 10% (v/v) of fetal bovine serum, 2 mM of glutamine, 50 μM of 2-mercaptoethanol, 60 μg/ml of penicillin and 100 μg/ml of streptomycin. The THP-1 cells maintained as described above were centrifuged at 1200 rpm at room temperature for 3 minutes to recover the cells in a 50 ml conical tube. The cell pellets thus obtained were suspended in RPMI 1640 medium containing 2% (v/v) of fetal bovine serum, 2 mM of glutamine, 50 μM of 2-mercaptoethanol, 60 μg/ml of penicillin and 100 μg/ml of streptomycin so as to provide the final cell concentration of 1×10^6 cells/ml. The cell suspension obtained as above was dispensed in 1 ml portions to a 24-well plate for cell culture. Then, 5 μl each of the solutions of the present imide derivatives dissolved in DMSO was added to each well. The plate was then incubated at 37° C. in a 5% CO2 incubator for 24 hours. After incubation, 100 μl of Alamar Blue (available from Biosource Co., Ltd.) was added to each well and then the plate was further incubated at 37° C. in a 5% CO2 incubator for 3 hours. Thereafter, a supernatant was recovered and determined for a difference in absorbances at 570 nm and 600 nm. Cytotoxicity was then evaluated in accordance with the survival rates determined from the differences in absorbances. More specifically, the lethal dose for 50% (LD50) in the THP-1 cells were calculated.

| Compound | IC50 (TNFα production [1]) [µM] | IC50 (IL-1β production) [µM] | Inhibitory rate (%) of TNFα production (TNFα production [2]) [%] | inhibitory activity on the TNFα production in mice (in words) (TNFα production [2]) | CC50 at 24 h [3] [µM] |
| --- | --- | --- | --- | --- | --- |
| COC(=O)C1CCC(=O)N1C(=O)C#Cc1ccccc1 (racemic) [Compound 21] | 0.6 | 7 |  |  |  |
| O=C(C#Cc1ccccc1)N1CCCC1=O [Compound 1] | 1 | 1.4 | 22 | significant inhibitory activity | 70 |
| O=C(C#Cc1ccc(Cl)cc1)N1CCCC1=O [Compound 2] | 1.6 | 5.5 |  |  |  |
| O=C(C#Cc1ccc(F)cc1)N1CCCC1=O [Compound 3] | 1.3 | 3.8 | 37 | significant inhibitory activity | > 100 |
| N#Cc1ccc(C#CC(=O)N2CCCC2=O)cc1 [Compound 4] | 1.7 | 7 |  |  |  |
| N#Cc1ccc(C#CC(=O)N2CCOC2=O)cc1 [Compound 5] | 2.1 | 2.6 |  |  |  |
| O=C(C#Cc1ccc(F)cc1)N1CCOC1=O [Compound 6] | 1.7 | 2.4 |  |  | > 100 |
| O=C(C#Cc1ccccc1)N1CCOC1=O [Compound 7] | 1.2 | 1.1 | 22 | significant inhibitory activity | > 200 |
| O=C(C#Cc1ccccc1)N1CCCCCC1=O [Compound 8] | 2.1 | 6 | 31 | significant inhibitory activity | > 200 |
| CC1CCC(=O)N1C(=O)C#Cc1ccccc1 (stereo not shown) [Compound 9] | 0.9 | 2.8 | 29 | significant inhibitory activity | 110 |
| O=C(C#Cc1ccccc1)N1CCN(C(=O)C#Cc2ccccc2)C1=O [Compound 10] | 0.5 | 6.7 |  |  |  |
| O=C(C#Cc1ccccc1)N1CCNC1=O [Compound 11] | 0.5 | 1.8 |  |  |  |
| CCN(C(=O)C#Cc1ccccc1)C(=O)c1ccccc1 [Compound 12] | 5.4 | 9.6 |  |  |  |
| O=C(C#Cc1ccccc1)N(Cc1ccc(F)cc1)C(=O)c1ccccc1 [Compound 13] | 15 | 15 |  |  |  |
| CC(=O)NC(=O)C#Cc1ccccc1 [Compound 14] | 1.8 | 4.4 |  |  |  |
| CC(=O)N(C(=O)C#Cc1ccccc1)c1ccc2c(c1)OCO2 [Compound 15] | 1.7 | 6.3 |  |  |  |
| CCCCC(=O)N(CCCC)C(=O)C#Cc1ccccc1 [Compound 16] | 14 | 13 |  |  |  |
| COc1ccccc1CN(C(C)=O)C(=O)C#Cc1ccccc1 [Compound 17] | 1.8 | 3.1 |  |  |  |
| CCN(C(C)=O)C(=O)C#Cc1ccccc1 [Compound 18] | 4.4 | 5.7 |  |  |  |
| CCN(C(=O)C#Cc1ccccc1)C(=O)Cc1ccccc1Cl [Compound 19] | 1.3 | 2 |  |  |  |
| Cc1ccccc1N(C(=O)C#Cc1ccccc1)C(=O)CCc1ccccc1 [Compound 20] | 1.9 | 1.3 |  |  |  |
| CC(=O)N(C(=O)C#Cc1ccccc1)c1ccccn1 [Compound 22] | 14 | 12 |  |  |  |
| CC(=O)N(Cc1ccco1)C(=O)C#Cc1ccccc1 [Compound 24] | 4.4 | 10 |  |  |  |
| CCN(C(=O)C#Cc1ccccc1)C(=O)c1cccs1 [Compound 25] | 4.8 | > 30 |  |  |  |
| CC(=O)N(C(=O)C#Cc1ccccc1)c1ccncc1 [Compound 26] | 1.7 | 8.8 | 37 | significant inhibitory activity |  |
| O=C(C#Cc1ccccc1)N(C(=O)c1ccccc1)c1ccc(F)cc1F [Compound 27] | 3 | 14 |  |  |  |
| CC(=O)N(CCc1ccccc1)C(=O)C#Cc1ccccc1 [Compound 28] | 1.7 | 8.8 |  |  |  |
| CCN(C(=O)C#Cc1ccccc1)C(=O)COC [Compound 29] | > 30 | > 30 |  |  |  |
| CC(=O)N(CCN(C)C)C(=O)C#Cc1ccccc1 [Compound 30] | 3.7 | 6.3 |  |  |  |
